Measurements taken from US7576085B2, “Imidazopyrazines as cyclin dependent kinase inhibitors” (Schering Corporation, priority 2002, dated 2009).

What was measured:
[1] = molecular target: T1, CDK2 (cyclin A or cyclin E) (Homo sapiens, UniProt P24941); test: CDK2 in vitro kinase assay (cyclin A or cyclin E dependent), SPA with biotinylated Histone H1 peptide; format: biochemical; conditions: for inhibition at 0.05 µg/mL: compound at 0.05 ug/mL, read-out: % INH @ 0.05 ug/mL; for inhibition at 0.5 µg/mL: compound at 0.5 ug/mL, read-out: % INH @ 0.5 ug/mL; for IC50: CDK2 with cyclin A or cyclin E, 33P-ATP SPA, 1 hour at room temperature
T1 construct: The expressed protein was approximately 34 kDa in size; made in house; host or cells: SF9 insect cells (recombinant baculovirus, pFASTBAC)

| SMILES | melting point | IC50 [1] | other results |
| --- | --- | --- | --- |
| Cc1cnc2c(Nc3ccccc3)nccn12 | 182 to 184 °C |  |  |
| Brc1cnc2c(NCCc3ccncc3)nc(-c3ccccc3)cn12 | 177 to 179 °C |  |  |
| Clc1ccccc1-c1cn2c(Cl)cnc2c(NCc2cccnc2)n1 | 127 to 129 °C |  |  |
| Clc1ccccc1-c1cn2c(I)cnc2c(NCc2ccncc2)n1 | 162 to 164 °C |  |  |
| Brc1cnc2c(NCCc3cccnc3)nc(-c3ccccc3)cn12 | 120 to 122 °C |  |  |
| COCCCNc1nc(-c2ccccc2Cl)cn2c(Br)cnc12 |  |  | inhibition at 0.05 µg/mL [1]: 30.7%; inhibition at 0.5 µg/mL [1]: 71.5% |
| Brc1cnc2c(NCCc3cccnc3)nc(-c3ccccc3)cn12 [drawing 713] |  | 4180 nM |  |
| Ic1cnc2c(NCc3ccncc3)nc(-c3ccccc3)cn12 [drawing 714] |  | 530 nM |  |
| Clc1ccccc1-c1cn2c(Cl)cnc2c(NCc2cccnc2)n1 [drawing 718] |  | 430 nM |  |
| Cc1cnc2c(Nc3ccccc3)nccn12 [drawing 711] |  | 15000 nM |  |
| Cc1cnc2c(NCc3cccnc3)nccn12 | 143 to 145 °C |  |  |
| O=C1CCCN1CCCNc1nc(-c2ccccc2Cl)cn2c(Br)cnc12 |  |  | inhibition at 0.05 µg/mL [1]: 30.7%; inhibition at 0.5 µg/mL [1]: 67.8% |
| CC(CO)Nc1nc(-c2ccccc2Cl)cn2c(Br)cnc12 (stereo not shown) |  | 200 nM | inhibition at 0.05 µg/mL [1]: 63%; inhibition at 0.5 µg/mL [1]: 92.7% |
| Cc1cnc2c(NC(c3ccccc3)c3ccccc3)nccn12 | 186 to 188 °C |  |  |
| Cc1cnc2c(NCc3ccncc3)nccn12 | 183 to 185 °C |  |  |
| Clc1ccccc1-c1cn2c(Br)cnc2c(NCCCn2ccnc2)n1 |  |  | inhibition at 0.05 µg/mL [1]: 37.5%; inhibition at 0.5 µg/mL [1]: 29.4% |

| SMILES | melting point | IC50 [1] | other results |
| --- | --- | --- | --- |
| Clc1ccccc1-c1cn2c(I)cnc2c(NCc2cccnc2)n1 |  | 230 nM |  |
| Brc1cnc2c(Nc3ccccc3)nc(-c3ccccc3)cn12 | 169 to 170 °C |  |  |
| FC(F)(F)c1ccc(CNc2nc(-c3ccccc3)cn3c(Br)cnc23)cn1 |  | 4550 nM |  |
| Ic1cnc2c(NCc3cccnc3)nc(-c3ccccc3)cn12 | 204 to 206 °C |  |  |
| CC(=O)c1cnc2c(NCc3cccnc3)nc(-c3ccccc3)cn12 |  | 4700 nM |  |
| Brc1cnc2c(NC3CCCCC3)nc(-c3ccccc3)cn12 | 145 to 146 °C |  |  |
| Clc1ccccc1-c1cn2c(Br)cnc2c(NCc2cccnc2)n1 |  | 240 nM | inhibition at 0.05 µg/mL [1]: 47.4%; inhibition at 0.5 µg/mL [1]: 88.6% |
| Cc1cnc2c(NCCc3ccncc3)nccn12 | 130 to 132 °C |  |  |
| Cc1cnc2c(NCc3ccncc3)nccn12 [drawing 712] |  | 22500 nM |  |
| Clc1ccccc1-c1cn2c(Br)cnc2c(NCCCn2cccc2)n1 |  |  | inhibition at 0.05 µg/mL [1]: 42.2%; inhibition at 0.5 µg/mL [1]: 48.8% |
| c1ccc(-c2cn3c(-c4ccccc4)cnc3c(NCc3cccnc3)n2)cc1 |  | 6700 nM |  |
| Clc1ccccc1-c1cn2c(Br)cnc2c(NCc2ccncc2)n1 |  | 490 nM |  |
| O=C(c1cccc(C(F)(F)F)c1)N1CCC(Nc2nc(-c3ccccc3Cl)cn3c(Br)cnc23)CC1 | 175 to 177 °C |  |  |
| Cc1cnc2c(NCc3ccccc3)nccn12 | 152 to 154 °C |  |  |
| Ic1cnc2c(NCc3ccncc3)nc(-c3ccccc3)cn12 | 139 to 141 °C |  |  |
| COCCNc1nccn2c(C)cnc12 | 104 to 105 °C |  |  |
